Patent US20250263436A1, “BROAD-SPECTRUM ANTIVIRAL DRUG FOR ENTEROVIRUS, AND APPLICATION” (WUHAN INSTITUTE OF VIROLOGY, CHINESE ACADEMY OF SCIENCES, priority 2020, published 2025)
Values joined by “and” are separate entries in the source; they are usually repeats but may differ in a detail not shown here. Equal values may be shown once.

Experiments:
[1] = Cytotoxicity of polypeptides in Vero cells (CCK-8); format: cell-based
Experimental: (§1) Therefore, this standard was testified by cytotoxicity assay, and the cells without any treatment were used as a control group.
(§2) (1) Vero cells were plated in a 96-well plate at 100 μL per well.
(§3) (2) When the cells grew to a confluence of 70%-80%, the DMEM medium containing 10% serum was replaced with a DMEM medium containing 2% serum, and a certain concentration gradient of polypeptide RQ or LQ or SQ was added, so that the final concentrations of the polypeptide in the wells were 0.073242 μM, 0.146484 μM, 0.292969 μM, 0.585938 μM, 1.171875 μM, 2.34375 μM, 4.6875 μM, 9.375 μM, 18.75 μM, 37.5 μM, 75 μM and 150 μM, respectively.
(§4) (3) The samples were collected 24 h after the addition of the polypeptide, and then 10 μL of live cell detection reagent CCK-8 was added to each well and mixed well.
(§5) (4) The plate was placed at 37° C. for 2 h.
(§6) (5) The absorbance value at OD450 was detected by a microplate reader.
(§7) The CC50 of each polypeptide was calculated taking the cell viability of untreated cells as 100%.

Vero cells = assay: Cytotoxicity of polypeptides in Vero cells (CCK-8); format: cell-based; conditions: Vero cells, 24 h
Experimental: as §1, §2, §3, §4, §5, §6, §7

EV71 [2] = assay: Inhibition of EV71 in Vero cells (viral RNA, qRT-PCR); format: cell-based, enterovirus 71 (EV71); conditions: anti-EV71 in Vero cells
Experimental: (§8) (1) Different cells were plated in a 24-well plate.
(§9) (2) When the cells grew to a confluence of 70%-80%, the DMEM medium containing 10% serum was replaced with a DMEM medium containing 2% serum (the DMEM medium containing 2% serum was added in each well at an amount of 0.5 mL), and 5 μL of EV71 virus of 1×10^6 PFU/mL was added to each well.
(§10) (3) After 1 h, different polypeptides (RQ or control TAT) with final concentrations of 0.3125 μM, 0.625 μM, 1.25 μM, 2.5 μM, and 5 μM were added respectively. The group without polypeptide added was used as a control.
(§11) (4) The samples were collected 24 h after the infection of EV71 virus, and RNA was extracted with the total RNA extraction kit.
(§12) (5) The supernatant was discarded, then 350 μL of TRK lysate was added to each well, and the plate was put on a shaker for 5 min.
(§13) (6) 350 μL of 70% ethanol (DEPC) was added to each well, and then the plate was put on a shaker for 5 min.
(§14) (7) The solution in each well was transferred to a RNA extraction column for 1 min of centrifugation at 12000 g.
(§15) (8) The solution obtained in the recovery tube was reloaded on the column again for 1 min of centrifugation at 12000 g.
(§16) (9) RNA washing buffer 1 was added in the column for 30 s of centrifugation at 12000 g.
(§17) (10) RNA washing buffer 2 was added in the column for 1 min of centrifugation at 12000 g.
(§18) (11) Step (10) was repeated.
(§19) (12) The column alone was centrifuged at 12000 g for 2 min to completely remove the residual RNA washing buffer.
(§20) (13) 50 μL of DEPC water was added to the column for 2 min of centrifugation at 12000 g.
(§21) (14) 2 μL of RNA sample was subjected to a fluorescence quantitative experiment using the one step qRT-PCR kit.
(1) Vero E6 cells were plated in a 24-well plate.
(3) After 1 h, different polypeptides (LQ or SQ) with final concentrations of 0.3125 μM, 0.625 μM, 1.25 μM, 2.5 μM, and 5 μM were added respectively. The group without polypeptide added was used as a control.

EV71 [3] = assay: Inhibition of EV71 in RD cells (viral RNA, qRT-PCR); format: cell-based, enterovirus 71 (EV71); conditions: EV71, 24 h after infection
Experimental: as §8, §9, §10, §11, §12, §13, §14, §15, §16, §17, §18, §19, §20, §21
(3) After 1 h, different polypeptides (RQ or control TAT) with final concentrations of 0.3125 μM, 0.625 μM, 1.25 μM, 2.5 μM and 5 μM were added respectively. The group without polypeptide added was used as a control.

CC[C@H](C)[C@H](NC(=O)[C@H](C)NC(=O)[C@H](CO)NC(=O)[C@H](CCCNC(=N)N)NC(=O)[C@H](CC(N)=O)NC(=O)[C@H](CC(N)=O)NC(=O)[C@H](Cc1ccc(O)cc1)NC(=O)[C@H](CCC(=O)O)NC(=O)[C@H](CCCNC(=N)N)NC(=O)[C@@H](NC(=O)[C@H](CC(C)C)NC(=O)[C@H](CCC(=O)O)NC(=O)[C@H](CO)NC(=O)CNC(=O)[C@H](CO)NC(=O)CNC(=O)[C@H](CCCNC(=N)N)NC(=O)[C@H](CCCNC(=N)N)NC(=O)[C@H](CCCNC(=N)N)NC(=O)[C@H](CCC(N)=O)NC(=O)[C@H](CCCNC(=N)N)NC(=O)[C@H](CCCNC(=N)N)NC(=O)[C@H](CCCCN)NC(=O)[C@H](CCCCN)NC(=O)[C@H](CCCNC(=N)N)NC(=O)CNC(=O)[C@@H](N)Cc1ccc(O)cc1)[C@@H](C)CC)C(=O)NCC(=O)N[C@@H](CC(N)=O)C(=O)N[C@H](C(=O)N[C@H](C(=O)N[C@@H](CCC(=O)O)C(=O)N[C@@H](C)C(=O)N[C@@H](CC(C)C)C(=O)N[C@@H](Cc1ccccc1)C(=O)N[C@@H](CCC(N)=O)C(=O)O)[C@@H](C)CC)[C@@H](C)O [SQ]
CC50 at 24 h ([1]; African green monkey, Table 1 (Vero cells)): 134 µM
viability at 24 h, 0.073242 µM ([1]; Vero cells, polypeptide 0.073242 μM, 24 h, read-out: Cell viability (%)): 104%
viability at 24 h, 0.146484 µM ([1]; Vero cells, polypeptide 0.146484 μM, 24 h, read-out: Cell viability (%)): 98%
viability at 24 h, 0.292969 µM ([1]; Vero cells, polypeptide 0.292969 μM, 24 h, read-out: Cell viability (%)): 101%
viability at 24 h, 0.585938 µM ([1]; Vero cells, polypeptide 0.585938 μM, 24 h, read-out: Cell viability (%)): 94.4%
viability at 24 h, 1.17188 µM ([1]; Vero cells, polypeptide 1.171875 μM, 24 h, read-out: Cell viability (%)): 90.1%
viability at 24 h, 2.34375 µM ([1]; Vero cells, polypeptide 2.34375 μM, 24 h, read-out: Cell viability (%)): 96.6%
viability at 24 h, 4.6875 µM ([1]; Vero cells, polypeptide 4.6875 μM, 24 h, read-out: Cell viability (%)): 105%
viability at 24 h, 9.375 µM ([1]; Vero cells, polypeptide 9.375 μM, 24 h, read-out: Cell viability (%)): 99.5%
viability at 24 h, 18.75 µM ([1]; Vero cells, polypeptide 18.75 μM, 24 h, read-out: Cell viability (%)): 106%
viability at 24 h, 150 µM ([1]; Vero cells, polypeptide 150 μM, 24 h, read-out: Cell viability (%)): 70%
Cell viability (%) (Vero cells; polypeptide 0.073242 μM): 103.4468% and 96.07%
Cell viability (%) (Vero cells; polypeptide 0.146484 μM): 94.606% and 92.7401%
Cell viability (%) (Vero cells; polypeptide 0.292969 μM): 103.1624% and 100.4524%
Cell viability (%) (Vero cells; polypeptide 0.585938 μM): 103.9959% and 100.6225%
Cell viability (%) (Vero cells; polypeptide 1.171875 μM): 94.07% and 98.81%
Cell viability (%) (Vero cells; polypeptide 2.34375 μM): 101.1325% and 99.03%
Cell viability (%) (Vero cells; polypeptide 4.6875 μM): 106.7734% and 95.3706%
Cell viability (%) (Vero cells; polypeptide 9.375 μM): 102.9859% and 103.7701%
Cell viability (%) (Vero cells; polypeptide 18.75 μM): 100.481% and 90.25%
Cell viability (%) (Vero cells; polypeptide 37.5 μM): 100.7644% and 90.65% and 80.6%
Cell viability (%) (Vero cells; polypeptide 75 μM): 90.36% and 95.75% and 70.31%
Cell viability (%) (Vero cells; polypeptide 150 μM): 80.35% and 60.9948%
IC50 (EV71 [2]): 10.3 µM

AC-qflaeitngiasrnnyergsgrrrqrrkkrgy-NH2 [RQ-DRI]
Percentage of viral RNA in RD cells (%) (EV71 [3]; polypeptide 0.3125 μM): 90.2% and 150.7832% and 85.04%
Percentage of viral RNA in RD cells (%) (EV71 [3]; polypeptide 0.625 μM): 113.2834% and 92.13% and 108.0728%
Percentage of viral RNA in RD cells (%) (EV71 [3]; polypeptide 1.25 μM): 93.12% and 79.48% and 58.29%
Percentage of viral RNA in RD cells (%) (EV71 [3]; polypeptide 2.5 μM): 24.4% and 38.77% and 23.45%
Percentage of viral RNA in RD cells (%) (EV71 [3]; polypeptide 5 μM): 21.2764% and 19.04% and 17.19%

MBP-CVA16 2C protein
helicase activity (unwinding of HEX-labeled dsRNA substrate, gel electrophoresis) (polypeptide RQ): RQ inhibited the helicase activity of CVA16 2C in a dose-dependent manner
